Drawing on patent US20260042769A1, “TRIARYL AGONISTS OF ALPHA-2 ADRENERGIC RECEPTORS” (ALCEPTOR THERAPEUTICS, INC., priority 2023, published 2026), this text covers EC50 for 41 molecules.

This assay concerns the target T1, human ADRA2B receptor (Homo sapiens, UniProt P18089).
T1 construct: expressed in transfected cells
T1 sequence (P18089 1-450): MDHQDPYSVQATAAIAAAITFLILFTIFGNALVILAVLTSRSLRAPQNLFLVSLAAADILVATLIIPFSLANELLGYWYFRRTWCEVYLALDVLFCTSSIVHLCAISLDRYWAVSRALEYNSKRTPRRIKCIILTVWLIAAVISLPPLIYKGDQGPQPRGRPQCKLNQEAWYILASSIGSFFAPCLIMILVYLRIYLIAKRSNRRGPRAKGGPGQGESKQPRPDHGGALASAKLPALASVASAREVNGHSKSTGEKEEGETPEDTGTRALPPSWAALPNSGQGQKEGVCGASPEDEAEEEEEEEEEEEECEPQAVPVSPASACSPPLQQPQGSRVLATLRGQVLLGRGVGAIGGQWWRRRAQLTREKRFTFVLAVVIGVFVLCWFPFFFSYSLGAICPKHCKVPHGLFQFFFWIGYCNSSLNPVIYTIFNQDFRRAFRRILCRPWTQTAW
The assay is described as follows: ADRA2B arrestin agonist assay. In kind it is cell-based. The settings on record: read-out: Beta-Arrestin - Human Alpha2B EC50. An outline of the steps: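 CHO-K1 cells stably expressing human ADRA2B, thawed from frozen stock and plated overnight, were treated with agonist for 2 h at 37 °C. Arrestin recruitment detected by luminescence after 2 h with detection reagents at room temperature.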

Where [1] appears, read: CHO-K1 cells stably expressing human ADRA2B.

Read-outs that look alike come from different tables or passages of the source.

Consider `Cc1cccc(C(Cc2nc(CO)ccc2F)c2c[nH]cn2)c1C` (centres unmarked) [Compound 317, {5-fluoro-6-[2-(4-imidazolyl)-2-(2,3-xylyl)ethyl]-2-pyridyl}methanol], for which, under setting [1], the EC50 was less than 10 nM. `Cc1cccc(C(Cc2ccc(F)c(CO)n2)c2c[nH]cn2)c1C` (centres unmarked) [Compound 318, {3-fluoro-6-[2-(4-imidazolyl)-2-(2,3-xylyl)ethyl]-2-pyridyl}methanol]: the EC50 under setting [1] is less than 10 nM. As to `Cc1cccc([C@H](Cc2ccncc2)c2c[nH]cn2)c1C` [Compound 319, 4-[(S)-2-(4-pyridyl)-1-(2,3-xylyl)ethyl]imidazole], the EC50 is less than 10 nM. Take `Cc1cccc([C@@H](Cc2ccncc2)c2c[nH]cn2)c1C` [Compound 320, 4-[(R)-2-(4-pyridyl)-1-(2,3-xylyl)ethyl]imidazole]: the EC50 was more than 500 nM. For the molecule `Cc1cccc(C(Cc2ccnc(F)c2)c2c[nH]cn2)c1F` (centres unmarked) [Compound 321, 4-[2-(2-fluoro-4-pyridyl)-1-(2-fluoro-3-tolyl)ethyl]imidazole], the EC50 under setting [1] was less than 10 nM. The same measure, in the same setting: the value for `Cc1cccc(C(Cc2cncc(F)c2)c2c[nH]cn2)c1F` (centres unmarked) [Compound 322, 4-[2-(5-fluoro-3-pyridyl)-1-(2-fluoro-3-tolyl)ethyl]imidazole] was 10 to 50 nM. Still for that read-out and setting: the result for `Cc1cccc(C(Cc2ccc(F)nc2)c2c[nH]cn2)c1F` (centres unmarked) [Compound 323, 4-[2-(6-fluoro-3-pyridyl)-1-(2-fluoro-3-tolyl)ethyl]imidazole] reads 50 to 500 nM; that for `COc1nccc(CC(c2cccc(C)c2)c2c[nH]cn2)n1` (centres unmarked) [Compound 337, 4-[2-(4-imidazolyl)-2-(m-tolyl)ethyl]-2-methoxypyrimidine], 10 to 50 nM. For `COc1ncc(CC(c2c[nH]cn2)c2cccc(C)c2C)cn1` (centres unmarked) [Compound 339, 5-[2-(4-imidazolyl)-2-(2,3-xylyl)ethyl]-2-methoxypyrimidine], under setting [1], the EC50 lay in the range of 50 to 500 nM. On the same count and under the same terms, the value for `COc1nccc(CC(c2cccc(Cl)c2)c2c[nH]cn2)n1` (centres unmarked) [Compound 340, 4-[2-(m-chlorophenyl)-2-(4-imidazolyl)ethyl]-2-methoxypyrimidine] was 50 to 500 nM; that for `Cc1nccc(CC(c2c[nH]cn2)c2cccc3cccnc23)n1` (centres unmarked) [Compound 341, 4-[2-(4-imidazolyl)-2-(8-quinolyl)ethyl]-2-methylpyrimidine] was less than 10 nM. As to `Cc1nccc(CC(c2c[nH]cn2)c2cccc3ccn(C)c23)n1` (centres unmarked) [Compound 342, 4-[2-(4-imidazolyl)-2-(1-methyl-7-indolyl)ethyl]-2-methylpyrimidine], the EC50 under setting [1] is less than 10 nM. Still for that read-out and setting: the result for `Cc1nccc(CC(c2c[nH]cn2)c2cccc3c2OCCO3)n1` (centres unmarked) [Compound 343, 4-[2-(2,3-dihydro-1,4-benzodioxin-5-yl)-2-(4-imidazolyl)ethyl]-2-methylpyrimidine] reads less than 10 nM. Regarding `OCc1nccc(CC(c2c[nH]cn2)c2cccc3c2OCC3)n1` (centres unmarked) [Compound 344, {4-[2-(2,3-dihydro-1-benzofuran-7-yl)-2-(4-imidazolyl)ethyl]-2-pyrimidinyl}methanol], the EC50 under setting [1] was less than 10 nM. On the same count and under the same terms, the value for `COCc1nccc(C[C@@H](c2c[nH]cn2)c2cccc(C)c2C)n1` [Compound 345, 4-[(R)-2-(4-imidazolyl)-2-(2,3-xylyl)ethyl]-2-(methoxymethyl)pyrimidine] was less than 10 nM; that for `COCc1nccc(C[C@H](c2c[nH]cn2)c2cccc(C)c2C)n1` [Compound 346, 4-[(S)-2-(4-imidazolyl)-2-(2,3-xylyl)ethyl]-2-(methoxymethyl)pyrimidine] was more than 500 nM; that for `COc1c(C)cccc1C(Cc1ccnc(CO)n1)c1c[nH]cn1` (centres unmarked) [Compound 347, {4-[2-(4-imidazolyl)-2-(2-methoxy-3-tolyl)ethyl]-2-pyrimidinyl}methanol] was 50 to 500 nM.

Take `COc1nccc(C[C@@H](c2c[nH]cn2)c2cccc3ccn(C)c23)n1` [Compound 348, 4-[(R)-2-(4-imidazolyl)-2-(1-methyl-7-indolyl)ethyl]-2-methoxypyrimidine]: the EC50 under setting [1] was less than 10 nM. The same measure, in the same setting: the value for `COc1nccc(C[C@H](c2c[nH]cn2)c2cccc3ccn(C)c23)n1` [Compound 349, 4-[(S)-2-(4-imidazolyl)-2-(1-methyl-7-indolyl)ethyl]-2-methoxypyrimidine] was more than 500 nM. Turning to `COc1nccc(CC(c2c[nH]cn2)c2cccc3cnn(C)c23)n1` (centres unmarked) [Compound 350, 7-[1-(4-imidazolyl)-2-(2-methoxy-4-pyrimidinyl)ethyl]-1-methyl-1H-indazole], the concentration for a half-maximal effect (EC50) under setting [1] lay in the range of 50 to 500 nM. In the case of `Cc1nccc(C[C@H](c2c[nH]cn2)c2cccc3c2OCCCO3)n1` [Compound 352, 4-[(S)-2-(3,4-dihydro-2H-1,5-benzodioxepin-6-yl)-2-(4-imidazolyl)ethyl]-2-methylpyrimidine], the EC50 under setting [1] was more than 500 nM. Still for that read-out and setting: the result for `Cc1cccc(C(Cc2ccnc(C(C)(C)O)n2)c2c[nH]cn2)c1C` (centres unmarked) [Compound 353, 2-{4-[2-(4-imidazolyl)-2-(2,3-xylyl)ethyl]-2-pyrimidinyl}-2 propanol] reads less than 10 nM; that for `COc1nccc(CC(c2c[nH]cn2)c2ccccc2C(F)(F)F)n1` (centres unmarked) [Compound 354, 4-{2-(4-imidazolyl)-2-[o-(trifluoromethyl)phenyl]eth-yl}-2-methoxypyrimidine], more than 500 nM; that for `COCc1nccc(CC(c2c[nH]cn2)c2cccc3c2OCCO3)n1` (centres unmarked) [Compound 356, 4-[2-(2,3-dihydro-1,4-benzodioxin-5-yl)-2-(4-imidazolyl)ethyl]-2-(methoxymethyl)pyrimidine], 10 to 50 nM. On the same count and under the same terms, the value for `COc1nccc(CC(c2c[nH]cn2)c2cccc3c(C4CC4)noc23)n1` (centres unmarked) [Compound 357, 3-cyclopropyl-7-[1-(4-imidazolyl)-2-(2-methoxy-4-pyrimidinyl)ethyl]-1,2-benzisoxazole] was more than 500 nM; that for `COc1nccc(CC(c2c[nH]cn2)c2ccccc2S(=O)(=O)N2CCCC2)n1` (centres unmarked) [Compound 358, 4-{2-(4-imidazolyl)-2-[o-(1-pyrrolidinylsulfonyl)phenyl]ethyl}-2-methoxypyrimidine] was more than 500 nM.

On to `[2H]C([2H])([2H])Oc1c(C)cccc1C(Cc1ccnc(C)n1)c1c[nH]cn1` (centres unmarked) [Compound 359, 4-{2-(4-imidazolyl)-2-[2-(^2H3)methoxy-3-tolyl]ethyl}-2-methylpyrimidine], for which, under setting [1], the EC50 fell in the range of 10 to 50 nM. Still for that read-out and setting: the value for `Cc1cccc([C@H](Cc2cnco2)c2c[nH]cn2)c1C` [Compound 364, 5-[(S)-2-(4-imidazolyl)-2-(2,3-xylyl)ethyl]-1,3-oxazole] was less than 10 nM; that for `Cc1cccc([C@H](Cc2cocn2)c2c[nH]cn2)c1C` [Compound 366, 4-[(S)-2-(4-imidazolyl)-2-(2,3-xylyl)ethyl]-1,3-oxazole] was less than 10 nM; that for `Cc1cccc([C@@H](Cc2cocn2)c2c[nH]cn2)c1C` [Compound 367, 4-[(R)-2-(4-imidazolyl)-2-(2,3-xylyl)ethyl]-1,3-oxazole] was more than 500 nM. On to `Cc1cccc(C(Cc2cocn2)c2c[nH]cn2)c1F` (centres unmarked) [Compound 368, 4-[2-(2-fluoro-3-tolyl)-2-(4-imidazolyl)ethyl]-1,3-oxazole], for which the EC50 under setting [1] was 50 to 500 nM. On the same count and under the same terms, the value for `Cc1cccc([C@@H](Cc2cnco2)c2c[nH]cn2)c1F` [Compound 369, 5-[(R)-2-(2-fluoro-3-tolyl)-2-(4-imidazolyl)ethyl]-1,3-oxazole] was more than 500 nM; that for `Cc1cccc([C@H](Cc2cnco2)c2c[nH]cn2)c1F` [Compound 370, 5-[(S)-2-(2-fluoro-3-tolyl)-2-(4-imidazolyl)ethyl]-1,3-oxazole] was 10 to 50 nM. For the molecule `c1cc2c(c([C@@H](Cc3cocn3)c3c[nH]cn3)c1)OCC2` [Compound 371, 4-[(R)-2-(2,3-dihydro-1-benzofuran-7-yl)-2-(4-imidazolyl)ethyl] 1,3-oxazole], the EC50 under setting [1] lay in the range of 50 to 500 nM. In the case of `c1cc2c(c([C@H](Cc3cocn3)c3c[nH]cn3)c1)OCC2` [Compound 372, 4-[(S)-2-(2,3-dihydro-1-benzofuran-7-yl)-2-(4-imidazolyl)ethyl] 1,3-oxazole], under setting [1], the EC50 was 50 to 500 nM. Turning to `Cc1nc(C[C@@H](c2c[nH]cn2)c2cccc(C)c2C)co1` [Compound 373, 4-[(R)-2-(4-imidazolyl)-2-(2,3-xylyl)ethyl]-2-methyl-1,3-oxazole], the EC50 under setting [1] fell in the range of 10 to 50 nM. As for `Cc1nc(C[C@H](c2c[nH]cn2)c2cccc(C)c2C)co1` [Compound 374, 4-[(S)-2-(4-imidazolyl)-2-(2,3-xylyl)ethyl]-2-methyl-1,3-oxazole], under setting [1], the EC50 was more than 500 nM.

For `COc1c(C)cccc1C(Cc1cnco1)c1c[nH]cn1` (centres unmarked) [Compound 375, 5-[2-(4-imidazolyl)-2-(2-methoxy-3-tolyl)ethyl]-1,3-oxazole], under setting [1], the concentration giving a half-maximal response (EC50) lay within 50 to 500 nM.

`Cc1cccc(C(Cc2cocn2)c2c[nH]cn2)c1Cl` (centres unmarked) [Compound 376, 4-[2-(2-chloro-3-tolyl)-2-(4-imidazolyl)ethyl]-1,3-oxazole]: under setting [1], the concentration giving a half-maximal response (EC50) fell in the range of 10 to 50 nM.

For `Cn1ccc2cccc(C(Cc3cocn3)c3c[nH]cn3)c21` (centres unmarked) [Compound 377, 4-[2-(4-imidazolyl)-2-(1-methyl-7-indolyl)ethyl]-1,3-oxazole], the concentration giving a half-maximal response (EC50) under setting [1] fell in the range of 50 to 500 nM. On the same count and under the same terms, the value for `Cn1ncc2c(C(Cc3cocn3)c3c[nH]cn3)cccc21` (centres unmarked) [Compound 378, 4-[1-(4-imidazolyl)-2-(1,3-oxazol-4-yl)ethyl]-1-methyl-1H-indazole] was 50 to 500 nM.

As usually defined, the EC50 is the midpoint of the concentration-response curve.
